From patent US10004711B2, “Methods and compositions comprising 10-hydroxy-2-decenoic acid” (DSM IP ASSETS B.V., priority 2014, dated 2018)

How the values were obtained:
[1] = tested on: Neurons from the brain's hippocampus; test: In vitro neurite extension (Map2a staining per neuron); format: cell-based, rat; conditions: for % Map2a Staining/Neuron: 7 days incubation
Description: Neurons from the brain's hippocampus were derived from embryonic day (E17) rat pups and incubated with QBA for 7 days. The cultures were then stained with neuron-specific marker, microtubule associated protein-2a (Map2a) and cell nuclei were stained with 4′,6-diamidino-2-phenylindole (DAPI). Fluorescent images of the staining were then captured with a confocal microscope. The staining was quantitated by dividing the percent area of the Map2a staining by the number of neurons.

[2] = tested on: Neurons from the brain's hippocampus; test: Glutamate toxicity, cell death (propidium iodide); format: cell-based, rat; conditions: for Cell Death (% Control): glutamate 25 μM 24 h
Description: Neurons from the brain's hippocampus were derived from E17 pups and incubated for 7 days. The cells were pre-treated with QBA for 48 hours and subsequently challenged with glutamate (25 μM) for 24 hours. The cultures were then stained with propidium iodide, a marker of cell death, and with tetramethylrhodamine ethyl ester (TMRE), a marker for mitochondrial health. The fluorescence of each of these markers was then quantitated with a fluorimeter.

[3] = Body weight of aged male rats fed QBA and/or DHA (Example 8); format: in vivo, rat
Description: Aged male rats were fed 10-Hydroxy-2-decenoic acid (QBA) for approximately […] from 12-months to 20-months of age and the weight of rats was recorded.

[4] = tested on: Adult female Long-Evans rats; test: Ovulatory cycle status of female rats with abnormal ovulatory cycles; format: in vivo, rat; conditions: six weeks, count of animals
Source text: Adult female Long-Evans rats (3 months-old) with abnormal ovulatory cycles were fed diets containing 10-Hydroxy-2-decenoic acid (QBA) or no QBA for six (6) weeks. Female rats having normal ovulatory cycle were used as positive controls and were not fed QBA.

[5] = tested on: histone deacetylases; conditions: Spannhoff et al. 2011; cited from earlier work

O=C(O)C=CCCCCCCCO [QBA, 10-Hydroxy-2-decenoic acid]
% Map2a Staining/Neuron ([1]; QBA 0.10 μM): 0.29% | % Map2a Staining/Neuron ([1]; QBA 0.30 μM): 0.32% | % Map2a Staining/Neuron ([1]; QBA 1.00 μM): 0.30% | % Map2a Staining/Neuron ([1]; QBA 3.00 μM): 0.31% | % Map2a Staining/Neuron ([1]; QBA 10.00 μM): 0.32% | % Map2a Staining/Neuron ([1]; QBA 30.00 μM): 0.32% | % Map2a Staining/Neuron ([1]; QBA 100.00 μM): 0.27% | growth of brain cells in culture ([1]; summary of Table 1): increased the growth of brain cells in culture | Cell Death (% Control) ([2]; QBA 0.10 μM pre-treatment 48 h): 92.52 % Control | Cell Death (% Control) ([2]; QBA 0.30 μM pre-treatment 48 h): 90.43 % Control | Cell Death (% Control) ([2]; QBA 1.00 μM pre-treatment 48 h): 88.78 % Control | Cell Death (% Control) ([2]; QBA 3.00 μM pre-treatment 48 h): 94.07 % Control | Cell Death (% Control) ([2]; QBA 10.00 μM pre-treatment 48 h): 92.78 % Control | Cell Death (% Control) ([2]; QBA 30.00 μM pre-treatment 48 h): 90.69 % Control | Cell Death (% Control) ([2]; QBA 100.00 μM pre-treatment 48 h): 91.76 % Control | cell death after glutamate toxicity ([2]; summary of Table 2): decreased cell death | Avg Wt ([3]; QBA 12 mg/kg/day, study day 0): 547.0 g | Avg Wt ([3]; QBA 12 mg/kg/day, study day 4): 560.9 g | Avg Wt ([3]; QBA 12 mg/kg/day, study day 11): 571.5 g | Avg Wt ([3]; QBA 12 mg/kg/day, study day 18): 580.1 g | Avg Wt ([3]; QBA 12 mg/kg/day, study day 25): 584.5 g | Avg Wt ([3]; QBA 12 mg/kg/day, study day 32): 590.8 g | Avg Wt ([3]; QBA 12 mg/kg/day, study day 39): 591.7 g | Avg Wt ([3]; QBA 12 mg/kg/day, study day 46): 594.3 g | Avg Wt ([3]; QBA 12 mg/kg/day, study day 53): 595.4 g | Avg Wt ([3]; QBA 12 mg/kg/day, study day 60): 598.7 g | Avg Wt ([3]; QBA 12 mg/kg/day, study day 67): 597.8 g | Avg Wt ([3]; QBA 12 mg/kg/day, study day 74): 603.7 g | Avg Wt ([3]; QBA 12 mg/kg/day, study day 81): 607.3 g | Avg Wt ([3]; QBA 12 mg/kg/day, study day 88): 608.5 g | Avg Wt ([3]; QBA 12 mg/kg/day, study day 95): 612.8 g | Avg Wt ([3]; QBA 12 mg/kg/day, study day 102): 614.5 g | Avg Wt ([3]; QBA 12 mg/kg/day, study day 109): 617.0 g | Avg Wt ([3]; QBA 12 mg/kg/day, study day 116): 617.2 g | Avg Wt ([3]; QBA 12 mg/kg/day, study day 123): 617.3 g | Avg Wt ([3]; QBA 12 mg/kg/day, study day 130): 616.9 g | Avg Wt ([3]; QBA 12 mg/kg/day, study day 137): 621.5 g | Avg Wt ([3]; QBA 12 mg/kg/day, study day 144): 619.1 g | Avg Wt ([3]; QBA 12 mg/kg/day, study day 151): 620.5 g | Avg Wt ([3]; QBA 24 mg/kg/day, study day 0): 551.5 g | Avg Wt ([3]; QBA 24 mg/kg/day, study day 4): 566.8 g | Avg Wt ([3]; QBA 24 mg/kg/day, study day 11): 573.4 g | Avg Wt ([3]; QBA 24 mg/kg/day, study day 18): 585.7 g | Avg Wt ([3]; QBA 24 mg/kg/day, study day 25): 593.1 g | Avg Wt ([3]; QBA 24 mg/kg/day, study day 32): 596.0 g | Avg Wt ([3]; QBA 24 mg/kg/day, study day 39): 599.7 g | Avg Wt ([3]; QBA 24 mg/kg/day, study day 46): 601.5 g | Avg Wt ([3]; QBA 24 mg/kg/day, study day 53): 601.8 g | Avg Wt ([3]; QBA 24 mg/kg/day, study day 60): 606.5 g | Avg Wt ([3]; QBA 24 mg/kg/day, study day 67): 607.5 g | Avg Wt ([3]; QBA 24 mg/kg/day, study day 74): 611.8 g | Avg Wt ([3]; QBA 24 mg/kg/day, study day 81): 614.5 g | Avg Wt ([3]; QBA 24 mg/kg/day, study day 88): 617.8 g | Avg Wt ([3]; QBA 24 mg/kg/day, study day 95): 620.2 g | Avg Wt ([3]; QBA 24 mg/kg/day, study day 102): 623.9 g | Avg Wt ([3]; QBA 24 mg/kg/day, study day 109): 627.4 g | Avg Wt ([3]; QBA 24 mg/kg/day, study day 116): 630.3 g | Avg Wt ([3]; QBA 24 mg/kg/day, study day 123): 629.2 g | Avg Wt ([3]; QBA 24 mg/kg/day, study day 130): 630.3 g | Avg Wt ([3]; QBA 24 mg/kg/day, study day 137): 633.5 g | Avg Wt ([3]; QBA 24 mg/kg/day, study day 144): 642.1 g | Avg Wt ([3]; QBA 24 mg/kg/day, study day 151): 638.6 g | body weight versus control, repeated measures ANOVA ([3]; all doses versus 0 mg/kg/day QBA or 0 mg/kg/day QBA+0.07% DHA): small but significant increase | body weight maintenance in aging male rats ([3]; summary of Table 14): helped to maintain healthy body weight | Ovulatory Cycle Status Abnormal ([4]; QBA 0.4 mg/kg/day): 7 | Ovulatory Cycle Status Normal ([4]; QBA 0.4 mg/kg/day): 8 | Ovulatory Cycle Status Abnormal ([4]; QBA 4 mg/kg/day): 9 | Ovulatory Cycle Status Normal ([4]; QBA 4 mg/kg/day): 6 | Ovulatory Cycle Status Abnormal ([4]; QBA 12 mg/kg/day): 4 | Ovulatory Cycle Status Normal ([4]; QBA 12 mg/kg/day): 11 | Ovulatory Cycle Status Abnormal ([4]; QBA 24 mg/kg/day): 12 | Ovulatory Cycle Status Normal ([4]; QBA 24 mg/kg/day): 3 | histone deacetylase inhibition [5]: inhibits histone deacetylases
